Measurements as given in article PMC5490157 (DARU Journal of Pharmaceutical Sciences, 2017).
Where “and” joins values, the source holds several entries; their conditions need not be identical. Identical values can stand only once. Marks after values point to notes of the source that are not given here.

Columns and labels:
CYP2D6 [1] = assay: Effect of MDMA on CYP2D6-mediated MRZ metabolism (8-OH formation) in isolated perfused rat liver; conditions: MDMA 3 mg/kg IP 1 hour before MRZ perfusion; inferred from 8-OH formation
CYP2D6 [2] = tested on: CYP2D6; design: method as in PMID 16714321; conditions: irreversible inhibition of CYP2D6; cited from earlier work
CYP3A4 = assay: Effect of MDMA on CYP3A4-mediated MRZ metabolism (NDES formation) in isolated perfused rat liver; conditions: MDMA 3 mg/kg IP 1 hour before MRZ perfusion; inferred from NDES formation
[3] = Isolated perfused rat liver, single-pass perfusion with MRZ-containing Krebs-Henselit buffer, control vs MDMA-pretreated rats; perfusate analysed by HPLC; conditions: for Mean outlet perfusate concentration at four latest samples / Metabolic ratio (metabolite concentration divided by MRZ concentration) at four latest sampling time intervals: mean ± SD; for Decrease in metabolite concentration, treatment vs control: four latest samples; for Decrease in metabolic ratio, treatment vs control: four latest sampling time intervals; for CLh (hepatic clearance) / CLint (intrinsic clearance): ±SD; for AUC(0-t) at 1 μg/ml: rat, isolated perfused rat liver (single-pass)
[4] = MDMA 3 mg/kg IP 1 hour before MRZ
[5] = control group (n = 6), MRZ inlet 1 μg/ml
[6] = control group, individual rats 1-6, metabolite formed from MRZ 1 μg/ml
[7] = treatment group (MDMA 3 mg/kg IP 1 hour before), individual rats 1-6
[8] = treatment group (MDMA 3 mg/kg IP 1 hour before), mean (n = 6)
[9] = treatment group (n = 6), MDMA 3 mg/kg IP 1 hour before MRZ 1 μg/ml
[10] = treatment group (n = 6), MDMA 3 mg/kg IP 1 hour before

SMILES: CNC(C)Cc1ccc2c(c1)OCO2 (stereo not drawn) [MDMA, 3,4-methylenedioxymethamphetamine]
- Effect on CYP2D6 hepatic isoenzyme (CYP2D6 [1]): inhibitory effects
- Time after MDMA administration at which mechanism-based inhibition of most CYP2D6 isoenzymes is demonstrated (CYP2D6 [2]): ≤ 1 h
- Effect on CYP3A4 hepatic isoenzyme (CYP3A4): inhibitory effects

SMILES: CN1CCN2c3ncc(O)cc3Cc3ccccc3C2C1 (stereo not drawn) [8-OH, 8-hydroxymirtazapine]
- Decrease in AUC (0–120) of metabolite, treatment vs control [3, 4]: 70%
- Mean outlet perfusate concentration at four latest samples [3, 5]: 10.3 ± 3.2 ng/mL
- Metabolic ratio (metabolite concentration divided by MRZ concentration) at four latest sampling time intervals ([3]; control group (n = 6)): 0.1 ± 0.05
- AUC (0–120) 8-OH Control [3, 6]: 2124.9 ng·min/mL and 1398.9 ng·min/mL and 1960.2 ng·min/mL and 1674.1 ng·min/mL and 610.9 ng·min/mL and 588.2 ng·min/mL
- AUC (0–120) 8-OH Control, MEAN ([3]; control group, mean (n = 6)): 1392.9 ng·min/mL
- Decrease in metabolite concentration, treatment vs control [3, 4]: 50%
- Decrease in metabolic ratio, treatment vs control [3, 4]: 83%
- AUC (0–120) 8-OH Treatment [3, 7]: 287.5 ng·min/mL and 398.6 ng·min/mL and 449.2 ng·min/mL and 415.4 ng·min/mL and 371.3 ng·min/mL and 920.5 ng·min/mL
- AUC (0–120) 8-OH Treatment, MEAN [3, 8]: 473.7* ng.min/ml
- Mean outlet perfusate concentration at four latest samples [3, 9]: 4.7 ± 2.9 ng/mL
- Metabolic ratio (metabolite concentration divided by MRZ concentration) at four latest sampling time intervals [3, 10]: 0.02 ± 0.008

SMILES: c1ccc2c(c1)Cc1cccnc1N1CCNCC21 (stereo not drawn) [NDES, N-desmethylmirtazapine]
- Decrease in AUC (0–120) of metabolite, treatment vs control [3, 4]: 60%
- Mean outlet perfusate concentration at four latest samples [3, 5]: 188.6 ± 63.44 ng/mL
- Metabolic ratio (metabolite concentration divided by MRZ concentration) at four latest sampling time intervals ([3]; control group (n = 6)): 1.7 ± 0.8
- AUC (0–120) NDES Control [3, 6]: 28,525.2 ng.min/ml and 22,505.4 ng.min/ml and 15,171.6 ng.min/ml and 18,839.8 ng.min/ml and 11,195.2 ng.min/ml and 12,075.7 ng.min/ml
- AUC (0–120) NDES Control, MEAN ([3]; control group, mean (n = 6)): 18,052.1 ng.min/ml
- Decrease in metabolite concentration, treatment vs control [3, 4]: 50%
- Decrease in metabolic ratio, treatment vs control [3, 4]: 79%
- AUC (0–120) NDES Treatment [3, 7]: 593.7 ng.min/ml and 12,111.8 ng.min/ml and 15,346.2 ng.min/ml and 5860.1 ng.min/ml and 10,613.3 ng.min/ml and 3605.2 ng.min/ml
- AUC (0–120) NDES Treatment, MEAN [3, 8]: 8021.7* ng.min/ml
- Mean outlet perfusate concentration at four latest samples [3, 9]: 98.5 ± 64.3 ng/mL
- Metabolic ratio (metabolite concentration divided by MRZ concentration) at four latest sampling time intervals [3, 10]: 0.45 ± 0.3

SMILES: CN1CCN2c3ncccc3Cc3ccccc3C2C1 (stereo not drawn) [MRZ, Mirtazapine, reference compound]
- Decrease in CLint, treatment vs control [3, 4]: 60%
- Increase in AUC (0–120) of parent drug, treatment vs control [3, 4]: 50%
- Mean outlet perfusate concentration at four latest samples [3, 5]: 131.9 ± 56.9 ng/mL
- CLh (hepatic clearance) ([3]; control group (n = 6), CLh=Q×E, Q 8.3 ml/min): 7.2 ± 0.5 mL/min and 7.21 ± 0.47 mL/min
- CLint (intrinsic clearance) ([3]; control group (n = 6), CLint=E×Q/F): 63.4 ± 25.8 mL/min and 63.4 ± 25.81 mL/min
- AUC (0–120) MRZ Control ([3]; control group, individual rats 1-6): 9928.7 ng.min/ml and 16,443.6 ng.min/ml and 10,611.4 ng.min/ml and 13,295.1 ng.min/ml and 19,497.1 ng.min/ml
- AUC(0-t) at 1 μg/ml ([3]; AUC (0–120) MRZ Control, MEAN, control group, mean (n = 6)): 237 ng·h/mL
- AUC(0-t) at 1 μg/ml ([3]; AUC (0–120) MRZ Control, control group, individual rats 1-6): 259 ng·h/mL
- AUC(0-t) at 1 μg/ml ([3]; ip, 3 mg/kg, AUC (0–120) MRZ Treatment, MEAN, treatment group (MDMA 3 mg/kg IP 1 hour before), mean (n = 6)): 358 ng·h/mL
- AUC(0-t) at 1 μg/ml ([3]; ip, 3 mg/kg, AUC (0–120) MRZ Treatment, treatment group (MDMA 3 mg/kg IP 1 hour before), individual rats 1-6): 401 ng·h/mL
- AUC (0–120) MRZ Treatment [3, 7]: 18,031.1 ng.min/ml and 17,675.6 ng.min/ml and 23,553.7 ng.min/ml and 23,063.4 ng.min/ml and 22,680.5 ng.min/ml
- Mean outlet perfusate concentration at four latest samples [3, 9]: 236.8 ± 44.7 ng/mL
- CLh (hepatic clearance) [3, 10]: 6.3 ± 0.4 mL/min and 6.33 ± 0.37 mL/min
- CLint (intrinsic clearance) [3, 10]: 27.7 ± 6.3 mL/min and 27.71 ± 6.26 mL/min
